# Reference: patent US20020061514A1, “Assay for identifying modulators of chondrogenesis” (priority 2000, published 2002)
# B1: Noggin: BMP pathway protein added at 100 ng/ml (protein, UniProt Q13253 28-232, looked up)
# Noggin: QHYLHIRPAPSDNLPLVDLIEHPDPIFDPKEKDLNETLLRSLLGGHYDPGFMATSPPEDRPGGGGGAAGGAEDLAELDQLLRQRPSGAMPSEIKGLEFSEGLAQGKKQRLSKKLRRKLQMWLWSQTFCPVLYAWNDLGSRFWPRYVKVGSCFSKRSCSVPEGMVCKPSKSVHLTVLRWRCQRRGGQRCGWIPIQYPIISECKCSC
# What was measured:
# Type in all cases: cell-based, mouse
# limb mesenchymal cells = test: Alcian blue staining of cartilage nodules in primary limb mesenchymal cultures; conditions: 10 ng/ml, 2 and 4 days, vs untreated cultures
# Procedure: (§1) Limb mesenchymal cells were harvested from embryonic age 11.25-11.75 mouse embryos as previously described (19). To establish proximal or distal cultures the proximal half of each limb bud was separated from the distal half, and each pool of limb fragments was processed separately. The cells were resuspended at a density of 1.5−2×10^7 cells/ml. For transfection purposes, cells were mixed with a DNA/FuGene6 mixture in a 2:1 ratio. FuGene6-DNA mixtures were prepared according to the manufacturer's instructions (Roche Biomolecular). Briefly, 1 μg of reporter, 1 μg of expression vector and 0.05 μg of pRLSV40 (Promega) were mixed for a total of ˜2 μg DNA in 100 μl of media and FuGene6. Fifty microlitres of the DNA mixture was transferred into a sterile 1.5 ml eppendorf tube, followed by 100 μl of cells. Cells were gently triturated and 10 μl was used to seed a single well of a 24-well culture dish. After 1.5 hrs in a humidified CO2 incubator, 1 ml of media containing compounds of interest was added to each well and was subsequently replaced 24 hrs following transfection.
# [1] = tested on: pGL3-4X48-EGFP reporter (Sox9 activity); test: pGL3(4X48)-EGFP reporter in primary limb mesenchymal cultures; conditions: 10 ng/ml, 64 hours post-transfection, vs untreated control cultures
# From the text: (§2) To increase reporter gene sensitivity, the Sox9 responsive reporter gene from 4X48-p89 luciferase (14) was subcloned into pGL3-basic (Promega). A fragment containing the reiterated (4 X 48) Sox9 binding sequence upstream of the mouse col II minimal promoter (−89 to +13) was liberated from 4X48-p89 plasmid by digestion with Bam HI and Hind III. This fragment was subcloned into the Bgl II and […] sites of pGL3-basic (Promega) to generate pGL3(4X48). To generate an EGFP-based col II reporter, the luciferase gene within pGL3(4X48) was replaced with EGFP-N1 (Clontech). For expression of genes in primary cultures a modified version of pSG5 (Stratagene), pSG5HS, was used which contains two additional restriction endonuclease sites, Hind III and Spe I. The myogenin promoter-luciferase construct was made by subcloning a 1.14 kB fragment of the myogenin promoter (containing the region from pGZ1092) from plasmid pGBB into pGL3-basic. The cardiac actin promoter-luciferase vector was generated by subcloning a fragment of the cardiac actin promoter from −440 to +6 into pGL3-basic.
# Limb mesenchymal cells were harvested from embryonic age 11.25-11.75 mouse embryos as previously described (19). To establish proximal or distal cultures the proximal half of each limb bud was separated from the distal half, and each pool of limb fragments was processed separately. […]
# [2] = tested on: pGL3(4X48) Sox9 responsive reporter gene; test: pGL3(4X48) luciferase reporter gene activity in transiently transfected primary limb mesenchymal cultures; conditions: for normalized RLU (pGL3(4X48) reporter gene activity): RLU values normalized to control reporter activity
# From the text: as §2, §1
# Analysis of reporter gene activity using the Dual Luciferase Assay System was done following the manufacturer's instructions (Promega). Briefly, ˜48 hrs post-transfection, cells were washed once with PBS and lysed in 100 μl of Passive Lysis Buffer for 20 min. Firefly and renilla luciferase activities were determined using 40 μl of lysate in a 96-well plate reading luminometer (Molecular Devices).
molecule,measurement,setting,value
BMP-4: bone morphogenetic protein added to cultures at 10 ng/ml,cartilage nodule number (alcian blue),limb mesenchymal cells,dramatic increase in nodule number
same,number of EGFP-expressing (fluorescing) cells,[1],enhanced
same,normalized RLU (pGL3(4X48) reporter gene activity),[2]; protein added at 10 ng/ml,4.2
same,increase in reporter gene activity,"[2]; treatment of reporter gene-transfected cells, 10 ng/ml (FIG. 3H)",~4.5 fold
Wnt3a,normalized RLU (pGL3(4X48) reporter gene activity),[2]; co-transfected expression construct,0.5
B1,normalized RLU (pGL3(4X48) reporter gene activity),[2]; protein added at 100 ng/ml,0.3
